Test results from PMC9856062, “Nano-Zirconium Dioxide Catalyzed Multicomponent Synthesis of Bioactive Pyranopyrazoles That Target Cyclin Dependent Kinase 1 in Human Breast Cancer Cells” (Biomedicines, 2023).
“And” between values parts separate entries of the source, which are not always exact repeats. Equal values may be shown once. Read-outs that look alike come from different tables or passages of the source.

Key:
[1] = system: MCF-7 cells; assay: MCF-7 cell viability assay (Alamar Blue); format: cell-based, human; details: for IC50: MCF-7 cells; for effect on viability of MCF-7 cells: 0, 0.01, 0.1, 10, and 100 µM
Protocol: We obtained MCF-7 cells from Procell Life Science and Technology. A humidified atmosphere of 5% CO2 was maintained at 37 °C for the culture of MCF-7 cells (2000) in MEM or Leibovitz’s L-15 medium enriched with 2% FBS [21, 22, 23, 24]. DMSO was used to prepare a stock solution of pyranopyrazoles, and the stock solution was then diluted with culture medium to achieve the desired concentration. […] Incubation with AlamarBlue assay reagent was performed for a further 4 h. According to the established protocol, the IC50 values of compounds were determined in the absence and presence of pyranopyrazoles.
Figure 4 Loss of MCF-7 cell viability produced by compounds 5b 5d, and 5f. MCF-7 cells were exposed to 5b (A), 5d (B), and 5f (C) for 72 h and the viability of cells was analyzed by Alamar Blue assays. The results are presented as mean ± S.E.M. of triplicate determinations.

[2] = system: T47D; assay: Breast cancer cell proliferation, Alamar Blue, T47D; format: cell-based; details: Homo sapiens, 72 h; T47D cells, 2% FBS medium, 3 days
[3] = target: T1, CDK1 (Homo sapiens, UniProt P06493); assay: CDK1 kinase assay (ADP-Glo / Kinase-Glo luminescence); format: biochemical; design: 1 mg of CDK1 antibodies were used to immunoprecipitate 1 mg of protein from the total cell lysate; endogenous in cells; host or cells: total cell lysate
T1 sequence (P06493 whole entry): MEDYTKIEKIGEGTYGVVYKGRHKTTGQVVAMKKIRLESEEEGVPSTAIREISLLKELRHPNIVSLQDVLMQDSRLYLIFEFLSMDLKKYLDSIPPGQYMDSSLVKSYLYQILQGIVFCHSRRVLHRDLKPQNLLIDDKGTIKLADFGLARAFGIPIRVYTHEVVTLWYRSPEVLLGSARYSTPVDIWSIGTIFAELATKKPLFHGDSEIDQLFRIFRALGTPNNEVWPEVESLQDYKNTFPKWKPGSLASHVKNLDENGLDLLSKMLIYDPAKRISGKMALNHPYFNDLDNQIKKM
T1 sequence (P14635 whole entry partner): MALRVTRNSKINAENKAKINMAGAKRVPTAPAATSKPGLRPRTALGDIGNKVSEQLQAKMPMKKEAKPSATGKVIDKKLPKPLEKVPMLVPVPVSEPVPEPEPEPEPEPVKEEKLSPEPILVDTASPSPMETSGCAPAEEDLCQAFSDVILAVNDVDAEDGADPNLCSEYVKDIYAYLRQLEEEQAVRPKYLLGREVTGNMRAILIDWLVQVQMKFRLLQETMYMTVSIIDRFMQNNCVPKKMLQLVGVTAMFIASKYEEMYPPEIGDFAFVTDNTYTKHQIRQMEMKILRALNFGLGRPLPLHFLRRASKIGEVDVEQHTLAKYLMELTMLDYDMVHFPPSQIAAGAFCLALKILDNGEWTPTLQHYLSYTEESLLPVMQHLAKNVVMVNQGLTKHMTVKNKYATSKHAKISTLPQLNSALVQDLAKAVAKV
Protocol: Promega’s Kinase-Glo luminescence assay was used for detection of CDK1 activity. IgG was used as a negative control, and 1 mg of CDK1 antibodies were used to immunoprecipitate 1 mg of protein from the total cell lysate. At […], the reaction mixture was incubated for three hours and subsequently, beads were washed three times with lysis buffer, following overnight incubation at […]. The reactant beads were added to […] kinase reaction buffer containing 0.2 mM ATP, 2 mM DTT, 0.1 mg/mL BSA, 20 mM MgCl2, and 40 mM Tris-HCl, and beads were resuspended for 30 min at room temperature with a CDK1/2 specific substrate (p53). A total of 10 µl of ADP-GLO reagent and […] of kinase detection reagent were added to the reaction for 40 min at room temperature and 5 min at room temperature, respectively. […]
Since the ADP-GloTM Kinase Assay uses multiple enzymes as components, it should not generate a high rate of interference or false responses when screening pyranopyrazoles anti-CDK1 activity. […] Based on the luminescence units for compounds 5b and 5f, Figure 8 illustrates the standard curves generated for inhibition of cdk1 activity by pyranopyrazoles at different concentrations. […]
Figure 8 In vitro inhibition of CDK1 by compounds 5b (A) and 5f (B). The inhibitory effect of pyranopyrazoles on CKD1 measured using ADP−Glo™ reagent. […]

[4] = system: BT-474 cells; assay: Breast cancer cell proliferation, Alamar Blue, BT-474; format: cell-based; details: Homo sapiens, 72 h, 2% FBS medium, 3 days
[5] = system: SKBR3; assay: Breast cancer cell proliferation, Alamar Blue, SKBR3; format: cell-based; details: Homo sapiens, SK-BR-3, 72 h; SKBR3 cells, 2% FBS medium, 3 days
[6] = system: MCF-10A cells; assay: Cytotoxicity to normal breast cells, Alamar Blue, MCF-10A; format: cell-based; details: Homo sapiens, 72 h; MCF-10A normal breast cells, 2% FBS medium, 3 days
[7] = system: MDA-MB-231; assay: Breast cancer cell proliferation, Alamar Blue, MDA-MB-231; format: cell-based; details: Homo sapiens, 72 h; MDA-MB-231 cells, 2% FBS medium, 3 days
[8] = target: T1, CDK1; design: method as in PMID 34156352; details: literature value; cited from earlier work

Row | IC50 ([1]; Homo sapiens, MCF7, 72 h) | melting point | IC50 [2] | IC50 ([1]; 72 h) | IC50 [3] | IC50 [4] | IC50 [5] | IC50 [7] | Compound | effect on viability of MCF-7 cells ([1]; 72 h) | IC50 [6] | IC50 [8]
1 | 55 µM | 196 to 198 °C |  |  |  |  |  |  | Cc1n[nH]c2c1C(c1ccc(-c3cncnc3)cc1)C(C#N)=C(N)O2 (stereo not shown) [5a, 6-Amino-3-methyl-4-(4-(pyrimidin-5-yl)phenyl)-1,4-dihydropy-rano [2,3-c] Pyrazole-5-carbonitrile] |  |  | 
2 | 17.8 µM | 214 to 215 °C | 27.5 µM | 17.2 µM and 17 µM | 0.96 µM | 23.7 µM | > 100 µM | 13.5 µM | Cc1cc(-c2cccc(C3C(C#N)=C(N)Oc4[nH]nc(C)c43)c2)cnc1F (stereo not shown) [5b, 6-Amino-4-(3-(6-fluoro-5-methylpyridin-3-yl)phenyl)-3-methyl-1,4-dihydropyrano [2,3-c] Pyrazole-5-carbonitrile] | dose–dependent decrease | 90.5 µM | 
3 |  | 245 to 247 °C | 33.7 µM |  |  | 21.3 µM | 69.4 µM | 15 µM | Cc1n[nH]c2c1C(c1cccc(-c3ccncc3)c1)C(C#N)=C(N)O2 (stereo not shown) [5c, 6-Amino-3-methyl-4-(3-(pyridin-4-yl)phenyl)-1,4-dihydropyrano [2,3-c] Pyrazole-5-carbonitrile] |  | 88.2 µM | 
4 | 38.9 µM | 212 to 214 °C |  |  |  |  |  |  | Cc1cc(-c2cccc(C3C(C#N)=C(N)Oc4[nH]nc(C)c43)c2)cnc1Cl (stereo not shown) [5d, 6-Amino-4-(3-(6-chloro-5-methylpyridin-3-yl)phenyl)-3-methyl-1,4-dihydropyrano [2,3-c] Pyrazole-5-carbonitrile] | dose–dependent decrease |  | 
5 | > 100 µM | 232 to 234 °C | > 100 µM |  |  | 50.2 µM | > 100 µM | 22.1 µM | Cc1n[nH]c2c1C(c1ccc(-c3ccncc3)cc1)C(C#N)=C(N)O2 (stereo not shown) [5e, 6-Amino-3-methyl-4-(4-(pyridin-4-yl)phenyl)-1,4-dihydropyra-no [2,3-c] Pyrazole-5-carbonitrile] |  | > 100 µM | 
6 | 23.8 µM | 268 to 269 °C | 45.8 µM |  | 7.16 µM | 15.2 µM | > 100 µM | 19.1 µM | Cc1cc(-c2ccc(C3C(C#N)=C(N)Oc4[nH]nc(C)c43)cc2)cnc1F (stereo not shown) [5f, 6-Amino-4-(4-(6-fluoro-5-methylpyridin-3-yl)phenyl)-3-methyl-1,4-dihydropyrano [2,3-c] Pyrazole-5-carbonitrile] | dose–dependent decrease | > 100 µM | 
7 |  | 242 to 243 °C |  |  |  |  |  |  | Cc1nn(-c2ccc(Cl)cc2)c2c1C(c1cccc(-c3cncnc3)c1)C(C#N)=C(N)O2 (stereo not shown) [5g, 6-Amino-1-(4-chlorophenyl)-3-methyl-4-(3-(pyrimidin-5-yl)phenyl)-1,4-dihydropyrano [2,3-c] Pyrazole-5-carbonitrile] |  |  | 
8 |  |  |  |  |  |  |  |  | CC(C)CC(=O)Nc1[nH]nc2c1CN(C(=O)C1CCN(C)CC1)C2(C)C [PHA-793887] |  |  | 0.06 µM

Row | Compound | IC50 ([1]; Homo sapiens, MCF7, 72 h) | melting point | IC50 [2] | IC50 ([1]; 72 h) | IC50 [3] | IC50 [4] | IC50 [5] | IC50 [7] | effect on viability of MCF-7 cells ([1]; 72 h) | IC50 [6] | IC50 [8]
9 | O=C(c1cc(Cc2n[nH]c(=O)c3ccccc23)ccc1F)N1CCN(C(=O)C2CC2)CC1 [Olaparib, reference compound] | 3.28 µM |  |  |  |  |  |  |  |  |  | 
